According to patent US12403132B2, “Methods of treating bone marrow failure syndromes and compositions for use in the same” (The Board of Trustees of the Leland Stanford Junior …, priority 2020, dated 2025):

Assays:
[1] = test system: CD235+ erythroblasts; assay: CD235+ erythroid expansion of differentiating human cord blood CD34+ progenitors (shRPS19/shRPL11 DBA models), flow cytometry; assay type: cell-based
[2] = test system: CD235+ erythroblasts; assay: as above; assay type: cell-based; conditions: control (shLuc), exogenous TGFβ 5 ng/ml
Protocol: FIG. 7. […] (a) Differentiating cord blood CD34+ progenitors were transduced with shRNA against luciferase or RPS19 and treated with inhibitors at working concentrations for TGFβ inhibition every three days. Cells were counted and CD235+ erythroid cells were assessed by flow cytometry after 15 days. (b) Prior to flow cytometry, 5000 cells per group were taken from differentiating cultures for NLK kinase assay. (c) CD34+ progenitors were transduced with shRNA against luciferase or RPS19 and non-targeting or siRNA against NLK. After sorting, samples were split into two groups and either treated with vehicle or SD208 every three days. After 15 days cells were counted and subject to flow cytometry to compare the expansion of maturing CD235+ erythroid (left panel) and CD11b+ myeloid cells (right panel). (d) Cord Blood CD34+ progenitors were transduced with shRNA against luciferase (left panel) or RPS19 (right panel) differentiated in erythroid media for 15 days alone, or in the presence of SB525334 or SD208 at 5 μM. Cells were counted and CD235+ erythroid (D—upper) and CD11b+ myeloid cell (D—lower) percentages were determined by flow cytometry. The number of erythroid or myeloid cells is expressed as a percentage of the number of that lineage with no cytokine or drug treatment.
FIG. 8. […] Human cord blood CD34+ progenitors were transduced with lentivirus co-expressing GFP with shRNA against luciferase (shLuc), RPS19 (shRPS19) or RPL11 (shRPL11). After 36 hours cells GFP+ cells were differentiated in erythroid media in the presence or absence of 5 μM SD208 for 15 days. Cells were counted and assessed for cell surface expression of CD235. (a) The percentage of CD235+ cells was multiplied by the cell count and values were compared as a percentage of untreated controls. (b) Normalizing values relative to untreated RPS19-insufficiency progenitors facilitates direct comparison of erythropoiesis between untreated and SD208-treated cultures. (c) Approximately 3000 cells were removed from differentiating treatments at day 6 and NLK activity was assessed. Values were normalized to reflect a fold induction relative to untreated controls. (d) Lin-Kit+ hematopoietic progenitors were obtained from three mouse embryos expressing tetracycline-inducible shRNA against RPS19 at day E14.5 or three untreated mice, and thee mature RPL11^+/+ or three mature RPL11^+/lox mice treated with tamoxifen for eight weeks. Cells were grown in the presence or absence of doxycycline and/or SD208 for eight days prior to counting and assessing for ter119 surface expression. Values were expressed as a percentage relative to untreated controls (e) and directly comparing the effect of SD208 on erythropoiesis in ribosomal-insufficiency by expressing values relative to untreated ribosome-insufficient cultures (f). At day 5 approximately 3000 cells were assayed for NLK kinase assay (g). CD34+ HSPCs were isolated from three healthy control and three DBA patient mononuclear bone marrow aspirates by magnetic bead sorting and differentiated in the presence or absence of SD208 for 14 days. After counting the total cell population, the ratio of CD235+ erythroblasts was determined by flow cytometry and number of CD235+ erythroblasts calculated. This was expressed as a percentage of the average number of erythroid cells present in untreated healthy controls. (h) The direct effect of SD208 on erythroid expansion in DBA patient samples was calculated following normalization of untreated DBA patient samples as 1-fold, (i) At day five, 3000 cells from each of the differentiating cultures was analyzed for NLK activity by kinase assay and are expressed as a fold induction relative to untreated healthy controls.

[3] = test system: CD11b+ myeloid cells; assay: CD11b+ myeloid expansion of differentiating human cord blood CD34+ progenitors; assay type: cell-based; conditions: control (shLuc), exogenous TGFβ 5 ng/ml
Protocol: FIG. 7. SD208 increases erythroid expansion in human model of DBA through inhibition of NLK and not TGFβ. (a) Differentiating cord blood CD34+ progenitors were transduced with shRNA against luciferase or RPS19 and treated with inhibitors at working concentrations for TGFβ inhibition every three days. Cells were counted and CD235+ erythroid cells were assessed by flow cytometry after 15 days. (b) Prior to flow cytometry, 5000 cells per group were taken from differentiating cultures for NLK kinase assay. (c) CD34+ progenitors were transduced with shRNA against luciferase or RPS19 and non-targeting or siRNA against NLK. After sorting, samples were split into two groups and either treated with vehicle or SD208 every three days. After 15 days cells were counted and subject to flow cytometry to compare the expansion of maturing CD235+ erythroid (left panel) and CD11b+ myeloid cells (right panel). […] Cells were counted and CD235+ erythroid (D—upper) and CD11b+ myeloid cell (D—lower) percentages were determined by flow cytometry. The number of erythroid or myeloid cells is expressed as a percentage of the number of that lineage with no cytokine or drug treatment.
FIG. 9. […] Cells were counted and the percentage expressing CD235+ erythroid (left) and CD11b+ myeloid (right) was determined by flow cytometry. […] Values are expressed as a fold induction relative to untreated. (Panel C) Transduced and sorted CD34+ progenitors were cultured in methylcellulose in the presence or absence of metformin for 16 days and BFU-E erythroid (left) and CFU-GM myeloid (right) colonies scored. […] To directly compare the effect of metformin in each group, metformin-treated cultures were normalized to untreated cultures and are expressed as a fold induction of the untreated control. […]
Cells were incubated with human Fc receptor binding inhibitor (#14-9161-73; eBioscience) followed by primary antibodies CD235-APC (#306607; BioLegend) and CD11b-PE/Cy5 (#101209; BioLegend). Data were collected on a DxP10 flow cytometer (Cytek) and analyzed by using FlowJo Software, v.9.7.2.

[4] = test system: c-Myb; assay: c-Myb protein and phosphorylation by Western blot after p53 activation in Kp53A1 cells; assay type: cell-based, human
[5] = test system: c-Myb; assay: NLK kinase and ubiquitination assays with c-Myb as substrate, Kp53A1 cells; assay type: cell-based, human
Text: FIG. 4. NLK phosphorylation of c-Myb results in ubiquitination and proteasome degradation. Fetal liver CD34+ progenitors transduced with shRNA against luciferase (shLuc) or RPS19 (shRPS19) in conjunction with siRNA against NLK (siNLK) or a non-targeting sequence (NT). Cells were differentiated for 5 days and split into three aliquots. One aliquot was lysed and probed for c-Myb, NLK, RPS19 and GAPDH protein expression by western blot, while the second aliquot was subjected to qRT-PCR to examine c-Myb mRNA expression (a) The third aliquot was analyzed for NLK activity by kinase assay (b—upper) and ubiquitination assay (b—lower). Orange, blue and green bars represent the extent of NLK, Myb and raptor phosphorylation respectively. Values are expressed as a fold relative to activity in controls (shLuc/NT). White, grey and black bars designate the substrates NLK, c-Myb and raptor respectively with values designating the extent of ubiquitination observed of each substrate relative to control. (c and d) Kp53A1 cells alone, or transfected with plasmids expressing NT or siNLK were cultured for 30 h at 37 or 32° C. prior to lysis and western blotting for c-Myb, NLK and GAPDH. Myb mRNA levels were determined by qRT-PCR. (c) and NLK kinase assays and cell ubiquitination assays were performed as above. (e) Kp53A1 cells were cultured at 37 (grey bars) or 32° C. […]

## TGFβ: exogenous TGFβ (5 ng/ml)
[1]; RPS19-insufficient progenitors, exogenous TGFβ
  additional reduction of erythroid expansion: 86%
[2]
  reduction of erythroid progenitors: 85%
[3]
  reduction of myeloid progenitors: 80%

## Cc1cccc(-c2[nH]c(C(C)(C)C)nc2-c2ccc3c(c2)OCO3)n1 [SB505124]
[1]; TGFβ-treated control and RPS19-insufficiency, 5 μM
  erythroid and myeloid expansion restored, % of cultures not treated with TGFβ: at least 95%

## CC(=O)N[C@@H](CSC(=O)[C@]1([C@@H](O)C(C)C)NC(=O)[C@H](C)[C@@H]1O)C(=O)O [lactacystin]
[4]; Kp53A1, 16 hours post p53 activation, lactacystin 10 μM, chloroquine 30 μM
  c-Myb protein levels: sustained
[4]; Kp53A1, after p53 activation, up to 48 h
  c-Myb phosphorylation: sustained phosphorylation to 48 h

## CN[C@@H]1C[C@H]2O[C@@](C)([C@@H]1OC)n1c3ccccc3c3c4c(c5c6ccccc6n2c5c31)C(=O)NC4 [staurosporine]
[5]; 1 µM
  c-Myb phosphorylation, fold increase relative to controls: 1.3 fold
[5]; Kp53A1 lysate with elevated p53 activity, 1 μM staurosporine, 7.4-fold without inhibitor
  c-Myb ubiquitination, fold of control: 2.3 fold
